Ends that are not written are not given here.
Legend:
Format in all cases: cell-based
[1] = test system: neutrophils isolated from human blood; test: Neutrophil migration assay (transwell); settings: 10 nM, positive control; HSA 0.4%
Description: Peptides were synthesized and purified by the Microchemical Facility at Emory University or by SigmaGenesis. All peptides were analyzed by mass spectrometry after HPLC to assess purity. Approximately 0.5–2.0 milligrams of peptide were used to make fresh stock solutions (5 mg/mL in HBSS/HSA) for each migration assay. The peptide stock solutions were used to make more dilute solutions (1 mg/mL, 100 μg/mL, 10 μg/mL, 1 μg/mL, 100 ng/mL, and 10 ng/mL) in HBSS/HSA for the assays.
Neutrophils were isolated from human blood (collected in Vacutainerm tubes containing EDTA) by layering the blood/EDTA mixture (about 20 mL) on top of two layers of Histopaque™ 1119 (bottom layer, 18 mL) and 1077 (top layer, 7 mL) in 50 mL Falcon tubes. The tubes were centrifuged at 1800 rpm for 30 minutes (no brake). Four layers appeared in the tubes after the spin (from top to bottom layers): plasma, 1077, 1119, and red blood cells. The buffy coat between the plasma and 1077 layers contained lymphocytes, monocytes, and some platelets. The plasma layer, the buffy coat, and most of the 1077 layer was removed and discarded. The 1119 layer that contained the neutrophils was removed and was placed into a clean 50 mL tube. Dulbecco's Phosphate Buffered Saline (DPBS) was added to bring the volume to 50 mL. The cells were centrifuged for 15 minutes at 2100 rpm. The cells were resuspended in 10 mL of DPBS, transferred to 15 mL tubes, and centrifuged again for 10 minutes at 2000 rpm. This process was repeated to wash the cells a second time. After the supernatant was removed, the red blood cells were lysed by adding 6 mL of cold sterile water to each 15 mL of supernatant. Cells were mixed in the water for only 30 seconds. Six mL of cold 2% sterile saline was then added. Cells were centrifuged again for 10 minutes at 2000 rpm. The red supernatant (containing hemoglobin from red blood cells) was removed. This process of red blood cell lysis was repeated two more times to remove all of the red blood cells. After most of the red blood cells were removed, neutrophils were resuspended in 10 mL of HBSS/HSA for counting with trypan blue.
A neutrophil migration assay was performed in duplicate using a 24-well transwell plate (3 μm pore size for membrane). Transwell membranes were pre-moistened with 20–40 μL of HBSS/HSA (0.04–0.4%). Chemotactic solutions (500 μL) were added to the bottom of each well. […] Transwells were then placed into the chemotactic solutions. The plate was placed into the incubator (37° C., 5% CO2) for one hour. Cells that migrated through the membrane were counted using trypan blue.
In the neutrophil migration experiments, neutrophils that were isolated were approximately 95% viable. Neutrophils were resuspended in HBSS/0.4%HSA for this experiment. IL-8 (10 nM in the HBSS/0.4%HSA buffer) was used as a positive control for neutrophil migration.

[2] = Viability assay (MTT) in EpiDerm skin model; settings: human, EpiDerm skin model (MatTek), relative to PBS control, average over 500 μM and 2 mM, read-out: total average viability
From the text: FIG. 16 provides a bar graph showing the percent living cells, relative to a positive control, in a skin model after treatment with two concentrations of peptide. The first sample, treated with phosphate buffered saline (PBS), is the positive control used to establish the cell count representing 100% viability. The second sample is a negative control where cells were exposed to 1% Triton-X100, showing that the assay can detect cell death. […] Data shown represent the average of three tests.
The sample containers were transferred to 6 well plates that contained fresh media. All peptides were dissolved in PBS at a final concentration of 10 mM, and 100 μL each peptide solution was pipetted onto the surface of the Epiderm sample container. Incubation was continued for 12 hours at 37° C., 5% CO2. After the incubation period, the sample containers were washed three times with PBS and the sample containers were transferred to a 24 well plate that contained 300 μL of MTT assay media per well (MTT concentration was 1 mg/mL). The colorimetric assay was allowed to develop for three hours (incubation at 37° C., 5% CO2). Sample containers were then transferred to a 24 well culture plate that contained 2 mL of isopropanol per well. Extraction of the colored precipitate occurred over a period of four hours at room temperature. Absorbance readings were taken at 570 nm and 650 nm for each sample. The percent viability of each sample relative to a PBS control was calculated as: 100×(OD570^sam−OD650^sam)/(OD570^con−OD650^con) (6) Routinely, the peptide sample was assayed in triplicate. Results The sequence of matrix metalloproteinase-2 (SEQ ID NO:14) is provided below to facilitate definition of the various domains and regions in matrix metalloproteinases.

[3] = test system: normal human dermal fibroblasts (NHDF); test: NHDF migration assay (48-well chemotaxis chamber); settings: three hours
Description: Normal, human dermal fibroblasts (NHDF) were obtained from Biowhittaker, (Walkersville, Md.) and propagated in T75 flasks in FBM media (500 mL, Biowhittaker) containing insulin, hFGF-b, GA-1000, and fetal bovine serum (10 mL) for up to 12 passages. For the migration assay, NHDF were washed once with 10 mL of Hank's buffered saline solution (HBSS). Three milliliters of trypsin (0.25%) in EDTA were added to the T75 flask for no more than five minutes to remove NHDF from the flask. NHDF in trypsin solution were added to 7 mL of FBM with no supplements added. NHDF were centrifuged for 5 minutes, and the supernatant was removed. NHDF were resuspended in 10 mL of FBM for counting. NHDF were centrifuged for another 5 minutes, and the supernatant was removed. NHDF were resuspended at 1×10^6 cells per mL in FBM without supplements. It was important to use FBM media only in migration assays because the complete media contains fibroblast growth factor and serum, both of which will trigger migration of fibroblasts.
Peptides were synthesized and purified by the Microchemical Facility at Emory University or by SigmaGenesis. All peptides were analyzed by mass spectrometry after HPLC to assess purity. Approximately 0.5–2.0 milligrams of peptide were used to make fresh stock solutions (5 mg/mL in PBS) for each migration assay. The peptide stock solutions in PBS were used to make more dilute solutions (1 mg/mL, 100 μg/mL, 10 μg/mL, 1 μg/mL, 100 ng/mL, 10 ng/mL) in FBM (without supplements) for the migration assays.
Polyvinylpyrrolidone-free polycarbonate membranes with […] pores (Neuroprobe, Inc., Gaithersburg, Md.) were washed with 90% ethanol for 15 minutes and rinsed four times with deionized water. Membranes were then placed into a glass dish containing an aqueous solution of 5 μg/mL gelatin. The glass dish was placed in to a water bath at about 90° C. for one hour. Membranes were removed from the gelatin solution and were allowed to dry for one hour in the 37° C. incubator.
A 48-well chemotaxis chamber (Neuroprobe, Inc., Gaithersburg, Md.) (see FIG. 20) was used for the migration assays. Twenty-eight/μL of each test solution were added to the bottom wells of the chamber in quadruplicate. A gelatin-treated membrane was placed carefully on top of the bottom wells. The gasket and top part of chamber were then placed carefully on top of the membrane. The apparatus was tightened using six thumbscrews. A solution of NHDF containing an estimated cell density (2×10^5 cells per mL) was made by adding 320 μL of the 1×10^6 cells per mL solution to 1.28 mL of FBM (no supplements). Fifty microliters of the 2×10^5 cells per mL NHDF solution were added to the top part of each well in the chamber. The chamber was placed in the incubator at 37° C./5% CO2 for three hours. The chamber was removed, the thumbscrews were removed, and the chamber was turned upside down on a paper towel. […] The membrane was carefully removed. […] The membrane was fixed with methanol and stained using the Diff-Quik Staining Solutions I and II. The nuclei of NHDF are stained purple. The membrane was mounted on a glass slide using cedarwood immersion oil and a cover slip. […] The average number of migrated NHDF in the negative control was subtracted from the experimental (peptide) data and positive control data.

Substance	Percent Neutrophil Migration exp.1 [1]	viability at 12 h [2]	percent of migrated NHDF compared to plasma fibronectin positive control ([3]; 100 μg/mL peptide)	percent of migrated NHDF compared to plasma fibronectin positive control ([3]; 1000 μg/mL peptide)
IL-8: positive control for neutrophil migration (10 nM in HBSS/HSA buffer) [reference compound]	81%			
NYNFFPRKPK [10-mer]		89.6%	11±0%	30±2%
PRCGNPDVA [9-mer]		95.8%	16±0%	32±2%

Reference: patent US7094754B2, “Anti-aging and wound healing compounds” (Kimberly-Clark Worldwide, Inc., priority 2001, dated 2006)
